Assay results as given in patent publication US20100216795A1, “TNIK INHIBITOR AND THE USE” (priority 2008, published 2010).

Tested on: HCT-116 cells
Assay: HCT-116 xenograft growth after intratumoral siRNA
Format: in vivo, BALB/c nu/nu nude mice
Conditions: HCT-116 tumours; for excised tumours versus not treated, atelocollagen only or control RNA: 18 days after the injection of siRNA; for volume of xenografts: single injection of siRNA with atelocollagen into the tumour, monitored 18 days
Procedure: We next examined the effects of TNIK on the growth of human colon cancer cells in vivo (FIG. 2). HCT-116 cells were implanted in the flank of immunodeficient mice. One week after the inoculation, siRNA against TNIK (12 or 13) mixed with atelocollagen (Takeshita, F. et al. Efficient delivery of small interfering RNA to bone-metastatic tumors by using atelocollagen in vivo. Proc Natl Acad Sci USA 102, 12177 (2005)) was injected directly into the tumours (224.5±8.9 mm^3 in size). Three days after the siRNA injection, some tumours were excised and the silencing of TNIK mRNA was confirmed by real-time PCR (FIG. 2b). The volume of xenografts was monitored for 18 days after siRNA injection (FIG. 2a). […] We observed similar regression of established tumours after a single injection of siRNA against TNIK in two other colorectal cancer cell lines, DLD1 and WiDr (FIGS. 3 and 4).
a, HCT-116 cells were inoculated into BALB/c nu/nu nude mice subcutaneously. The developed tumours were not treated, or treated with only atelocollagen, control RNA (X or IX) or siRNA against TNIK (12 or 13). The volume of tumours (n=8 per group) was monitored as indicated. #, P<0.001 (Mann-Whitney U-test); Bars, SE; N.S., not significant. b, mRNA expression of TNIK in tumours injected with siRNA (n=3 per group). c, d, Representative appearance of mice and excised tumours 18 days after the injection of siRNA. Columns indicate the average weight of excised tumours (n=8 per group). $, P<0.005 (Mann-Whitney U-test); Bars, SE.
5×10^6 HCT-116, DLD1 or WiDr cells suspended in 0.1 ml of PBS were subcutaneously inoculated into the flanks of 5-week-old female BALB/c nu/nu nude mice (SLC, Tokyo, Japan). One week later the developed tumours were treated with siRNA together with atelocollagen (AteloGene; KOKEN, Tokyo, Japan) (Takeshita, F. et al. Efficient delivery of small interfering RNA to bone-metastatic tumors by using atelocollagen in vivo. Proc Natl Acad Sci USA 102, 12177 (2005)). The final concentration of siRNA was 30 μM and that of atelocollagen was 0.5%. A 0.2-ml volume of siRNA solution was injected directly into each tumour. Tumour volume was determined as V=A×[…], where A and B represent the largest and smallest dimensions (Bergers, G et al. Effects of angiogenesis inhibitors on multistage carcinogenesis in mice. Science 284, 808 (1999)).

Substance	excised tumours versus not treated, atelocollagen only or control RNA	volume of xenografts
siRNA against TNIK (12): small interfering RNA against TNIK, sense 5′-CGACAUACCCAGACUGAUAUU-3′, synthesized by Dharmacon (antisense UAUCAGUCUGGGUAUGUCGUU; listed as RNA, chemistry not given here)	significantly smaller	regressed almost completely
siRNA against TNIK (13): small interfering RNA against TNIK, sense 5′-GACCGAAGCUCUUGGUUACUU-3′, synthesized by Dharmacon (antisense GUAACCAAGAGCUUCGGUCUU; listed as RNA, chemistry not given here)	significantly smaller	regressed almost completely
